Legend:
[1] = Phase I trial of oral AP23573: whole blood PK assessment; format: in vivo, patients; conditions: three schedules, 20 mg/day, Day 1 of Cycle 1, preliminary PK analysis
Procedure: (§1) Methods: Eligible patients (in cohorts of at least 3 patients) initially are randomized at the same flat, fixed starting dose of 20 mg/day into one of three 28-day dosing schedules, i.e. once daily continuous dosing for 4 days every week (QD×4), 21 of 28 days (QD×21), or all 28 days (QD×28). The subsequent dose level is determined based on review of safety and tolerability during Cycle 1 and enrollment for each schedule proceeds independently. Antitumor activity is assessed every 2 cycles. Whole blood is collected for PK assessment and peripheral blood mononuclear cells collected for PD assessment of the levels of phosphorylated 4E-BP1, a downstream target of mTOR.

[2] = Phase I dose escalation trial of oral AP23573: safety, tolerability and maximum tolerated dose; format: in vivo, patients
Description: Background: In phase I clinical trials with an intravenous (IV) formulation of the mTOR inhibitor, AP23573, the drug was well-tolerated and active in a broad range of cancers. This trial is undertaken to assess the safety, tolerability and maximum tolerated dose (MTD) of an orally administered dosage form of AP23573. Secondary objectives include characterization of the pharmacokinetic (PK) and pharmacodynamic (PD) profiles of AP23573, as well as antitumor activity.
as §1

[3] = Additional clinical studies of oral AP23573 on QD×5 schedule: tolerability; format: in vivo
Procedure: (§2) Additional clinical studies of AP23573 were conducted using a QD×5 dosing schedule for the delivery of 30, 40 or 50 mg of AP23573/day. A set of patients receiving the 30 mg and 50 mg doses were also given a loading dose on the first day of each week, which doubled the dose that day to 60 and 100 mg, respectively.
(§3) Methods: In a Phase 1/2a trial of single-agent oral AP23573, 17 patients, 9 of whom are sarcoma patients, were studied at the chosen dose and schedule (40 mg QD×5). In addition, of 7 patients who began dosing at 50 mg QD×5, 4 patients (2 of whom are sarcoma patients) underwent dose reduction to 40 mg. Twenty-one patients, therefore, received 40 mg QD×5, of whom 11 are sarcoma patients.
(§4) In another QD×5 study in which the dose on day 1 of each week was doubled (to comprise a loading dose), 7 patients (6 sarcoma patients) received doses of 60, 30, 30, 30 and 30 mg over each week (i.e., 30 mg QD×5, with the dose on day 1 doubled). Five other patients (2 sarcoma patients) received 50 mg QD×5, with the dose on day 1 doubled to 100 mg.
(§5) Overall, 36 patients were dosed on a QD×5 schedule, of whom 12 received loading doses on day 1 of each week.

[4] = tested on: phosphorylated 4E-BP1, a downstream target of mTOR; assay: Phase I trial of oral AP23573: PD assessment of phosphorylated 4E-BP1 levels in peripheral blood mononuclear cells; format: in vivo, patients
Procedure: as §1

[5] = tested on: sarcoma and other tumors; assay: Additional clinical studies of oral AP23573 on QD×5 schedule: anti-tumor activity (Clinical Benefit Response); format: in vivo, patients; conditions: QD×5 schedules
Procedure: as §2, §3, §4, §5

[6] = tested on: refractory or advanced malignancies; assay: Phase I trial of oral AP23573: antitumor activity assessed every 2 cycles; format: in vivo, patients
Procedure: as §1

CO[C@H]1C[C@@H]2CC[C@@H](C)[C@@](O)(O2)C(=O)C(=O)N2CCCC[C@H]2C(=O)O[C@H]([C@H](C)C[C@@H]2CC[C@@H](OP(C)(C)=O)[C@H](OC)C2)CC(=O)[C@H](C)/C=C(\C)[C@@H](O)[C@@H](OC)C(=O)[C@H](C)C[C@H](C)/C=C/C=C/C=C/1C [AP23573]
Cmax range [1]: 77 to 163 ng/mL | median Cmax [1]: 98.5 ng/mL | dose-limiting toxicity (DLT) ([2]; QD×4 20 mg/day cohort): no dose-limiting toxicity (DLT) was reported | dose-limiting toxicity (DLT) ([2]; QD×4 30 mg/day schedule): no DLTs | side effects ([2]; QD×4 60 and 70 mg/day cohort): side effects were reported | maximum tolerated daily dose ([2]; QD×4 schedule): 50 mg/day | dose-limiting toxicity (DLT) ([2]; QD×21 cohort, 20 mg/day): severe stomatitis and fatigue | maximum tolerated daily dose ([2]; QD×21 schedule): 10 mg/day | dose-limiting toxicity (DLT) ([2]; QD×28 cohort, 20 mg/day): severe stomatitis and fatigue | maximum tolerated daily dose ([2]; QD×28 schedule): 15 mg/day | severity of adverse events related to AP23573 during Cycle 1 ([2]; three schedules): mild or moderate in severity, reversible | adverse events related to AP23573 during Cycle 1 in at least 2 patients ([2]; three schedules, 10 to 30 mg/day): mucositis, fatigue, rash, diarrhea, anorexia, and nausea | side-effects ([3]; 40 mg QD×5): generally mild or moderate and manageable | tolerability of dose level ([3]; 50 mg QD×5 with the dose on day 1 doubled to 100 mg): exceed the maximum tolerated dose | reduction of phosphorylated 4E-BP1 levels ([4]; 1 day after dosing): > 80% | phosphorylated 4E-BP1 levels during the dosing period ([4]; during the dosing period): remain reduced during the dosing period | evaluable sarcoma patients that were CBRs [5]: 43% | patients achieving a Clinical Benefit Response (CBR) ([5]; of the 26 evaluable patients): Seven | antitumor activity (decrease) ([6]; patient with metastatic breast carcinoma, qd×4, 20 mg/day cohort): 22% | antitumor activity (decrease) ([6]; patient with metastatic renal cell carcinoma, qd×21, 20 mg/day cohort): 21% | disease status ([6]; patient with soft tissue sarcoma, QD×4, 20 mg/day cohort, after 2 cycles): stable disease

Reference: patent publication US20070185150A1, “Therapeutic methods” (priority 2005, published 2007)
